# Data as given in publication PMC7305224, “Mutually stabilizing interactions between proto-peptides and RNA” (Nature Communications, 2020).
# Tests used:
# Format in all cases: binding
# [1] = test system: RNA duplex 3 (5′-rArArCrGrUrArUrArCrGrUrU-3′, palindromic); assay: RNA thermal denaturation (Tm) by UV hyperchromicity, RNA duplex 3
# Method: (§1) Prior to Tm analyses, RNA samples were annealed in the appropriate buffer by heating to 75 °C and slowly cooling to room temperature. Depsipeptide/peptide was added to the annealed RNA and incubated at 4 °C for 20 min prior to carrying out the analysis. For analyses involving dry-down reaction mixtures, the Tm was determined by monitoring fluorescence increase upon melting of a fluorophore/quencher-labeled RNA duplex (5′-rCrGrArUrUrUrArGrCrG-/3IABkFQ/-3′ and 3′-rGrCrUrArArArUrCrGrC-FAM-5′) using a BioRad CFX Connect rtPCR instrument with a heating ramp of 1 °C/min and 20 μL final sample volumes. For analyses involving pure, synthetic compounds, the Tm of the RNA was determined by monitoring UV hyperchromicity at 260 nm using a Varian Cary Bio-100 spectrophotometer, with a heating ramp of 1 °C/min and 0.5- or 1-cm pathlength cells. The following RNA sequences were used: RNA duplex 1 = 5′-rCrGrCrUrArArArUrCrG-3′ and 5′-rCrGrArUrUrUrArGrCrG-3′; RNA duplex 2 = 5′-rArArArArUrUrUrArUrArUrUrArUrUrA-3′ and 5′-rUrArArUrArArUrArUrArArArUrUrUrU-3′; RNA duplex 3 = 5′-rArArCrGrUrArUrArCrGrUrU-3′ (palindromic); and H26a RNA = 5′-rArUrGrArGrUrArArCrCrGrUrArArGrGrUrGrArArArUrU-3′. RNA was present in each assay at a final concentration of 2.5 μM of the folded structure (2.5 μM each strand for duplex 1 and duplex 2, 5.0 μM palindromic strand for duplex 3, 2.5 μM strand for H26a RNA). Tm values were determined by nonlinear fitting of the melting curves using GraphPad Prism 8.2.1 for duplex 1 and H26a, or by finding the maximum of the first derivative of the curve using the Varian Cary Bio-100 software for duplex 2 and duplex 3. Both methods of determining the Tm gave similar values for a given denaturation curve.
# [2] = test system: RNA duplex 2 (5′-rArArArArUrUrUrArUrArUrUrArUrUrA-3′ and 5′-rUrArArUrArArUrArUrArArArUrUrUrU-3′); assay: RNA thermal denaturation (Tm) by UV hyperchromicity, RNA duplex 2
# Method: as §1
# [3] = test system: RNA duplex 1 (5′-rCrGrCrUrArArArUrCrG-3′ & 5′-rCrGrArUrUrUrArGrCrG-3′); assay: RNA thermal denaturation (Tm) by UV hyperchromicity at 260 nm with synthetic peptides/depsipeptides, RNA duplex 1; conditions: 100 mM NaCl
# Method: Each sample contained RNA duplex 1 (5′-rCrGrCrUrArArArUrCrG-3′ and 5′-rCrGrArUrUrUrArGrCrG-3′, 2.5 μM strand) and peptide/depsipeptide (100 μM) in buffered solution (10 mM phosphate, 100 mM NaCl, pH 7.0 or 10 mM acetate, 100 mM NaCl, pH 5.0). a Structures of depsipeptides used to systematically characterize cationic side chain effects on RNA duplex stability. Lactic acid residues are highlighted. Ac acetyl, Aba acetamidobenzoic acid, which was appended to the N-terminus to increase UV absorbance. b Structures of the Fmoc-didepsipeptide building blocks used for solid-phase synthesis of depsipeptide sequences. Fmoc fluorenylmethoxycarbonyl. c Comparative effects of oligo-didepsipeptide sequences 2–6 and analogous oligo-dipeptide and on the Tm of the RNA duplex (number of independent measurements: n = 3 for Arg and Lys sequences; n = 2 for His and Dab sequences; n = 4 for Orn sequences). The shaded areas correspond to the mean ± SD Tm measured for the RNA duplex alone (n = 16 independent measurements). Data are shown as a scatter plot with mean ± SD. d Comparative effects on RNA duplex Tm of depsipeptide sequences containing a single backbone ester (number of independent measurements: n = 3 for Arg; n = 2 for His, Orn, and Dab; n = 4 for Lys), relative to RNA duplex alone (n = 16 independent measurements). Data are shown as a scatter plot with mean ± SD. e To assess the impact of different cationic side chains on depsipeptide degradation rates, depsipeptides 7–11 (40 μM) were incubated at 37 °C in buffer (100 mM HEPES, 10 mM NaCl, pH 7.3). After 5 min, the reactions were quenched by the addition of 3% TFA, and samples were analyzed by HPLC.
# as §1, with “3.” for “3. Both methods of determining the Tm gave similar values for a given denaturation curve.”
substance,measurement,setting,value
Aba-Gly-Ala-Dab-Lys-Ala-Dab-Lys-lac-Dab-Lys-Ala-Dab-Lys-NH2 [compound 9],RNA duplex 3 Tm,"[1]; observed Tm with peptide/depsipeptide 100 µM, pH 7.0, RNA alone 48.6 ± 0.7, mean ± SD of 2-4 independent experiments",58.5 ± 0.7 °C
same,RNA duplex 3 ΔTm,"[1]; peptide/depsipeptide 100 μM, 5.0 μM palindromic strand, pH 7.0, 10 mM phosphate, 100 mM NaCl, mean of 2–4 replicates",9.9 °C
same,RNA duplex 2 Tm,"[2]; observed Tm with peptide/depsipeptide 100 µM, pH 7.0, RNA alone 33.7 ± 0.7, mean ± SD of 2-4 independent experiments",41.8 ± 0.6 °C
same,RNA duplex 2 ΔTm,"[2]; peptide/depsipeptide 100 μM, RNA 2.5 μM each strand, pH 7.0, 10 mM phosphate, 100 mM NaCl, mean of 2–4 replicates",8.2 °C
same,RNA duplex 1 Tm,"[3]; observed Tm with peptide/depsipeptide 100 µM, pH 7.0, 10 mM phosphate, RNA alone 43.8 ± 0.4, mean ± SD of 2-4 independent experiments",54.2 ± 1.3 °C
same,RNA duplex 1 ΔTm,"[3]; peptide/depsipeptide 100 μM, RNA 2.5 μM each strand, 10 mM phosphate, pH 7.0, vs RNA alone at matched pH, mean of 2–4 replicates",10.4 °C
